# Source: patent publication US20040185102A1, “Dosage forms comprising a CETP inhibitor and an HMG-CoA reductase inhibitor” (Pfizer Inc, priority 2002, published 2004)
# Assays:
# [1] = in vitro dissolution test using a microcentrifuge method; type: physicochemical; conditions: for AUC / Torcetrapib Concentration: PBS pH 6.5, 37° C.; for Torcetrapib Concentration: 1000 μg/mL if all drug dissolved
# Description: The spray-dried solid amorphous dispersion was evaluated in an in vitro dissolution test using a microcentrifuge method. In this test, 7.2 mg of the spray-dried solid amorphous dispersion was placed into a microcentrifuge tube. The tube was placed in a 37° C. sonicating bath, and 1.8 mL phosphate buffered saline (PBS) at pH 6.5 and 290 mOsm/kg was added, resulting in a torcetrapib concentration of 1000 μg/mL if all of the drug had dissolved. The sample was quickly mixed using a vortex mixer for about 60 seconds. The sample was centrifuged at 13,000 G at 37° C. for 1 minute. The resulting supernatant solution was then sampled and diluted 1:6 (by volume with methanol and then analyzed by high-performance liquid chromatography (HPLC). The contents of the tube was mixed on the vortex mixer and allowed to stand undisturbed at 37° C. until the next sample was taken. Samples were collected at 4, 10, 20, 40, 90, and 1200 minutes. The concentrations of drug obtained in these samples are shown in Table 1, which represent the average of duplicate tests.
# As a control, an in vitro dissolution test was performed using the procedures described above except that 1.8 mg of crystalline drug was used. […]
# [2] = aqueous solubility; type: physicochemical
smiles,measurement,setting,value
"CCOC(=O)N1c2ccc(C(F)(F)F)cc2[C@@H](N(Cc2cc(C(F)(F)F)cc(C(F)(F)F)c2)C(=O)OC)C[C@H]1CC [Crystalline Drug, [2R,4S]-4-[(3,5-bis-trifluoromethyl-benzyl)-methoxycarbonyl-amino]-2-ethyl-6-trifluoromethyl-3,4-dihydro-2H-quinoline-1-carboxylic acid ethyl ester]",AUC90 (area under the aqueous concentration versus time curve after 90 minutes),[1]; receptor solution PBS,<88 min-μg/mL
same,"Cmax,90 (maximum concentration of torcetrapib in solution during the first 90 minutes)",[1]; receptor solution PBS,<1000 ng/mL
same,AUC,[1]; time 0 min,0 min-μg/mL
same,Torcetrapib Concentration,[1]; time 0 min,0 µg/mL
same,AUC,[1]; time 4 min,<2 min-μg/mL
same,Torcetrapib Concentration,[1]; time 4 min,<1 µg/mL
same,AUC,[1]; time 10 min,<8 min-μg/mL
same,Torcetrapib Concentration,[1]; time 10 min,<1 µg/mL
same,AUC,[1]; time 20 min,<18 min-μg/mL
same,Torcetrapib Concentration,[1]; time 20 min,<1 µg/mL
same,AUC,[1]; time 40 min,<38 min-μg/mL
same,Torcetrapib Concentration,[1]; time 40 min,<1 µg/mL
same,AUC,[1]; time 90 min,<88 min-μg/mL
same,Torcetrapib Concentration,[1]; time 90 min,<1 µg/mL
same,AUC,[1]; time 1200 min,"<1,200 min-μg/mL"
same,Torcetrapib Concentration,[1]; time 1200 min,<1 µg/mL
same,solubility,[2],< 0.04 µg/mL
